Patent US20100305093A1, “Inhibitors of mTOR and Methods of Making and Using” (EXELIXIS, INC., priority 2009, published 2010)

Each molecule was assayed against mTOR/GbL/Raptor (mTORC1) (Homo sapiens, UniProt P42345) (assay: mTOR/GbL/Raptor (mTORC1) ELISA assay, phosphorylation of 4E-BP1). Conditions: 0.2 nM mTORC1, 10 μM ATP, 50 nM NHis-tagged 4E-BP1; read-out: Activity in mTOR/GbL/Raptor ELISA Assay.
Type: biochemical
Method: mTOR/GbL/Raptor (mTORC1) ELISA Assay
The measurement of mTORC1 enzyme activity was performed in an ELISA assay format following the phosphorylation of 4E-BP1 protein. All experiments were performed in the 384-well format. Generally, 0.5 μL DMSO containing varying concentrations of the test compound was mixed with 15 μL enzyme solution. Kinase reactions were initiated with the addition of 15 μL of substrates-containing solution. The assay conditions were as follows; 0.2 nM mTORC1, 10 μM ATP and 50 nM NHis-tagged 4E-BP1 in 20 mM Hepes, pH 7.2, 1 mM DTT, 50 mM NaCl, 10 mM MnCl2, 0.02 mg/mL BSA, 0.01% CHAPS, 50 mM β-glycerophosphate. Following an incubation of 120 minutes at ambient temperature, 20 μL of the reaction volume was transferred to a Ni-Chelate-coated 384-well plate. The binding step of the 4E-BP1 protein proceeded for 60 minutes, followed by washing 4 times each with 50 μL of Tris-buffered saline solution (TBS). Anti-phospho-4E-BP1 rabbit-IgG (20 μL, 1:5000) in 5% BSA-TBST (0.2% Tween-20 in TBS) was added and further incubated for 60 minutes. Incubation with a secondary HRP-tagged anti-IgG was similarly performed after washing off the primary antibody (4 washes of 50 μL). Following the final wash step with TBST, 20 μL of SuperSignal ELISA Femto (Pierce Biotechnology) was added and the luminescence measured using an EnVision plate reader.

Row | IC50 [nM] | Compound
1 | 3 | O=C(c1ccc(C(O)(O)C(F)(F)F)cc1)N1CCOc2ccc(-c3ccc(-c4ncc[nH]4)cc3)cc2C1 [2,2,2-trifluoro-1-[4-({7-[4-(1H-imidazol-2-yl)phenyl]-2,3-dihydro-1,4-benzoxazepin-4(5H)-yl}carbonyl)phenyl]ethane-1,1-diol]
2 | 14.4 | CCc1c(C(=O)N2CCOc3ccc(-c4ccc(NC(=O)N(C)C)cc4)cc3C2)ccc(S(C)(=O)=O)c1F [3-[4-(4-{[2-ethyl-3-fluoro-4-(methylsulfonyl)phenyl]carbonyl}-2,3,4,5-tetrahydro-1,4-benzoxazepin-7-yl)phenyl]-1,1-dimethylurea]
3 | 11.9 | CCc1c(C(=O)N2CCOc3ccc(-c4ccc(C(=O)NC)c(F)c4)cc3C2)ccc(S(C)(=O)=O)c1F [4-(4-{[2-ethyl-3-fluoro-4-(methylsulfonyl)phenyl]carbonyl}-2,3,4,5-tetrahydro-1,4-benzoxazepin-7-yl)-2-fluoro-N-methylbenzamide]
4 | 4.8 | Cc1nc2ccc(-c3ccc4c(c3)CN(C(=O)c3ccc5c(c3)CCS5(=O)=O)CCO4)cc2[nH]1 [4-[(1,1-dioxido-2,3-dihydro-1-benzothien-5-yl)carbonyl]-7-(2-methyl-1H-benzimidazol-6-yl)-2,3,4,5-tetrahydro-1,4-benzoxazepine]
5 | 17.2 | Cc1nc2ccc(-c3ccc4c(c3)CN(C(=O)c3cc5nc(C)sc5n3C)CCO4)cc2[nH]1 [4-[(2,4-dimethyl-4H-pyrrolo[3,2-d][1,3]thiazol-5-yl)carbonyl]-7-(2-methyl-1H-benzimidazol-6-yl)-2,3,4,5-tetrahydro-1,4-benzoxazepine]
6 | 9.5 | CCn1c(C(=O)N2CCOc3ccc(-c4ccc5nc(C)[nH]c5c4)cc3C2)c(Cl)c2ccccc21 [4-[(3-chloro-1-ethyl-1H-indol-2-yl)carbonyl]-7-(2-methyl-1H-benzimidazol-6-yl)-2,3,4,5-tetrahydro-1,4-benzoxazepine]
7 | 3.2 | COc1ccc(OC)c(S(=O)(=O)c2ccc(C(=O)N3CCOc4ccc(-c5ccc6nc(C)[nH]c6c5)cc4C3)cc2)c1 [4-[(4-{[2,5-bis(methyloxy)phenyl]sulfonyl}phenyl)carbonyl]-7-(2-methyl-1H-benzimidazol-6-yl)-2,3,4,5-tetrahydro-1,4-benzoxazepine]
8 | 6 | CCc1c(C(=O)N2CCOc3ccc(-c4ccc(-c5nc6ccc(C)cc6[nH]5)cc4)cc3C2)ccc(S(C)(=O)=O)c1F [4-{[2-ethyl-3-fluoro-4-(methylsulfonyl)phenyl]carbonyl}-7-[4-(6-methyl-1H-benzimidazol-2-yl)phenyl]-2,3,4,5-tetrahydro-1,4-benzoxazepine]
9 | 5.6 | CC(C)NS(=O)(=O)c1ccc(C(=O)N2CCOc3ccc(-c4ccc5nc[nH]c5c4)cc3C2)c(Br)c1 [4-{[7-(1H-benzimidazol-6-yl)-2,3-dihydro-1,4-benzoxazepin-4(5H)-yl]carbonyl}-3-bromo-N-(1-methylethyl)benzenesulfonamide]
10 | 6.6 | Nc1ccc(-c2ccc3c(c2)CN(C(=O)c2ccc(S(N)(=O)=O)cc2)CCO3)cn1 [4-{[7-(6-aminopyridin-3-yl)-2,3-dihydro-1,4-benzoxazepin-4(5H)-yl]carbonyl}benzenesulfonamide]
11 | 6.4 | Cc1ccc(C(=O)N2CCOc3ccc(-c4ccc5nc[nH]c5c4)cc3C2)c(C)c1 [7-(1H-benzimidazol-6-yl)-4-[(2,4-dimethylphenyl)carbonyl]-2,3,4,5-tetrahydro-1,4-benzoxazepine]
12 | 6.3 | O=C(c1ccc(-c2csnn2)cc1)N1CCOc2ccc(-c3ccc4cn[nH]c4c3)cc2C1 [7-(1H-indazol-6-yl)-4-{[4-(1,2,3-thiadiazol-4-yl)phenyl]carbonyl}-2,3,4,5-tetrahydro-1,4-benzoxazepine]
13 | 8.6 | Cc1nc2ccc(-c3ccc4c(c3)CN(C(=O)c3ccc(S(=O)(=O)N5CCN(C)CC5)cc3)CCO4)cc2[nH]1 [7-(2-methyl-1H-benzimidazol-6-yl)-4-({4-[(4-methylpiperazin-1-yl)sulfonyl]phenyl}carbonyl)-2,3,4,5-tetrahydro-1,4-benzoxazepine]
14 | 7.1 | Cc1nc2ccc(-c3ccc4c(c3)CN(C(=O)c3cc(S(=O)(=O)N5CCCC5)cn3C)CCO4)cc2[nH]1 [7-(2-methyl-1H-benzimidazol-6-yl)-4-{[1-methyl-4-(pyrrolidin-1-ylsulfonyl)-1H-pyrrol-2-yl]carbonyl}-2,3,4,5-tetrahydro-1,4-benzoxazepine]
15 | 9.9 | CCc1c(C(=O)N2CCOc3ccc(-c4ccc(C(=O)NCC5CNC5)cc4)cc3C2)ccc(S(C)(=O)=O)c1F [N-(azetidin-3-ylmethyl)-4-(4-{[2-ethyl-3-fluoro-4-(methylsulfonyl)phenyl]carbonyl}-2,3,4,5-tetrahydro-1,4-benzoxazepin-7-yl)benzamide]
16 | 5.3 | CCc1c(C(=O)N2CCOc3ccc(-c4cnc(NCCNC)s4)cc3C2)ccc(S(C)(=O)=O)c1F [N-[5-(4-{[2-ethyl-3-fluoro-4-(methylsulfonyl)phenyl]carbonyl}-2,3,4,5-tetrahydro-1,4-benzoxazepin-7-yl)-1,3-thiazol-2-yl]-N′-methylethane-1,2-diamine]

Same assay, conditions: 0.2 nM mTORC1, 10 μM ATP, 50 nM NHis-tagged 4E-BP1; read-out: activity in mTOR/GbL/Raptor (mTORC1) ELISA assay, activity bands by Table 1 compound number

Row | IC50 [nM] | Compound
17 | ≤ 10 | CCS(=O)(=O)c1ccc(C(=O)N2CCOc3ccc(-c4ccc(N)nc4)cc3C2)c(C)c1F [Example 566, 5-(4-{[4-(ethylsulfonyl)-3-fluoro-2-methylphenyl]carbonyl}-2,3,4,5-tetrahydro-1,4-benzoxazepin-7-yl)pyridin-2-amine]
18 | 10 to 100 | O=C(c1ccc(C(=O)C(F)(F)F)cc1)N1CCOc2ccc(-c3cccnc3)cc2C1 [Example 884, 2,2,2-trifluoro-1-{4-[(7-pyridin-3-yl-2,3-dihydro-1,4-benzoxazepin-4(5H)-yl)carbonyl]phenyl}ethanone]
19 | 10 to 100 | COc1ccc(-c2ccc3c(c2)CN(C(=O)c2ccc(S(N)(=O)=O)cc2)CCO3)cn1 [Example 885, 4-({7-[6-(methyloxy)pyridin-3-yl]-2,3-dihydro-1,4-benzoxazepin-4(5H)-yl}carbonyl)benzenesulfonamide]
20 | 100 to 500 | COc1ccc(-c2ccc3c(c2)CN(C(=O)c2ccc(S(C)(=O)=O)cc2)CCO3)cn1 [Example 886, 7-[6-(methyloxy)pyridin-3-yl]-4-{[4-(methylsulfonyl)phenyl]carbonyl}-2,3,4,5-tetrahydro-1,4-benzoxazepine]
21 | 10 to 100 | COc1ccc(-c2ccc3c(c2)CN(C(=O)c2ccc(C(=O)C(F)(F)F)cc2)CCO3)cn1 [Example 887, 2,2,2-trifluoro-1-[4-({7-[6-(methyloxy)pyridin-3-yl]-2,3-dihydro-1,4-benzoxazepin-4(5H)-yl}carbonyl)phenyl]ethanone]
22 | 10 to 100 | CS(=O)(=O)c1ccc(C(=O)N2CCOc3ccc(-c4ccc(N)nc4)cc3C2)cc1 [Example 888, 5-(4-{[4-(methylsulfonyl)phenyl]carbonyl}-2,3,4,5-tetrahydro-1,4-benzoxazepin-7-yl)pyridin-2-amine]
